From patent publication US10392412B2, “Platinum anticancer agents” (THE REGENTS OF THE UNIVERSITY OF CALIFORNIA, priority 2015, dated 2019) come the findings set out here.

Entries after “also recorded” stand apart in the source; their conditions may differ. Where two headings read alike, the source gives them in different places. Marks after values point to notes of the source that are not given here.

One data set deals with SNF539 cells. Briefly: Cytotoxicity CellTiter-Glo. In kind it is cell-based, human. (In general: Cellular ATP, detected with luciferase, serves as a proxy for viable cell number.)
A further data set deals with SNB75 cells. The data set is described as follows: Cytotoxicity CellTiter-Glo. In kind it is cell-based, human.
Another data set relates to U87MG cells. Briefly: Cytotoxicity CellTiter-Glo. In kind it is cell-based, human.
Another data set has as its system U251 cells. The data set is described as follows: Cytotoxicity CellTiter-Glo. In kind it is cell-based, human.
Another data set concerns T98G cells. The data set is described as follows: Cytotoxicity CellTiter-Glo. In kind it is cell-based, human.
Another data set relates to genomic DNA. Briefly: Platinum-DNA adducts by ICP-MS in HEK293 cells. In kind it is cell-based, human. The note with it: 10 μM, 2 hours. As to the method: Method to quantify platinum-DNA adducts by ICP-MS has been previously described (5,6). In brief, HEK293 cells were seeded in 6-well poly-D-lysine plate (cell density=0.5×10^6 cells/well). […] After 2 hours, the cells were washed twice with cold HBBS. The platinum content associated with genomic DNA was determined as described elsewhere. Genomic DNA was isolated from the cell pellets using Genomic DNA purification kit (Promega) and the DNA-bound platinum was determined by ICP-MS, which was normalized to total DNA content (determined by absorption spectrometry at 260 nm).

Another data set has as its system MG-63 cells. The data set is described as follows: Cytotoxicity CellTiter-Glo. As to conditions: MG-63, Osteosarcoma. In kind it is cell-based, human.
The test system of a further data set is SAOS-2 cells. Briefly: Cytotoxicity CellTiter-Glo. In kind it is cell-based, human. As to conditions: SAOS-2, Osteosarcoma.
In a further data set the test system is U-2 OS cells. The data set is described as follows: Cytotoxicity CellTiter-Glo. In kind it is cell-based, human.
For the next data set, the system named is A204 cells. The data set is described as follows: Cytotoxicity CellTiter-Glo. In kind it is cell-based, human. As to conditions: A204, Rhabdomyosarcoma.
The subject of the next data set is A673 cells. The data set is described as follows: Cytotoxicity CellTiter-Glo. In kind it is cell-based, human.
A further data set relates to RMS13 cells. The data set is described as follows: Cytotoxicity CellTiter-Glo. In kind it is cell-based, human. As to conditions: RMS13, Rhabdomyosarcoma.
The test system of another data set is Kelly cells. The data set is described as follows: Cytotoxicity CellTiter-Glo. In kind it is cell-based, human.
In the next data set the test system is SHEP cells. The data set is described as follows: Cytotoxicity CellTiter-Glo. In kind it is cell-based, human.
A further data set relates to SH-SY5Y cells. Briefly: Cytotoxicity CellTiter-Glo. In kind it is cell-based, human.
A further data set has as its system AsPC1 cells. The data set is described as follows: Cytotoxicity CellTiter-Glo. In kind it is cell-based, human. As to conditions: read-out: IC50 (50% growth inhibition); AsPC1, Pancreas; 72 hours. As to the method:
(§1) Human cancer cell lines were purchased from UCSF Cell Culture Facility (CCF) or obtained through Material Transfer.
(§2) The range of platinum concentrations used in the studies are 5 μM-100 μM. After 72 hours of treatment, the medium were removed and replaced with 50 μL of the media plus 50 μL of the CellTiterGlo reagent. The number of viable cells in culture will be determined based on quantitation of the ATP present, which is an indicator of the number of active cells. Concentration response graphs were generated for each compound using GraphPad Prism software. The graphs were analyzed using a curve fit for sigmoid dose-response, and IC50 values were derived. The results were expressed as mean IC50 values with the standard error of the mean.

A further data set relates to DU145 cells. Briefly: Cytotoxicity CellTiter-Glo. In kind it is cell-based, human. As to conditions: read-out: IC50 (50% growth inhibition); DU145, Prostate; 72 hours. The protocol:
as §1, §2

The subject of the next data set is H226 cells. Briefly: Cytotoxicity CellTiter-Glo. As to conditions: read-out: IC50 (50% growth inhibition); H226, Non-small cell squamous; 72 hours. In kind it is cell-based, human. As to the method: as §1, §2
For another data set, the system named is HCT116 cells. The data set is described as follows: Cytotoxicity CellTiter-Glo. As to conditions: read-out: IC50 (50% growth inhibition); HCT116, Colon; 72 hours. In kind it is cell-based, human. As to the method:
as §1, §2

Another data set has as its system HT29 cells. Briefly: Cytotoxicity CellTiter-Glo. In kind it is cell-based, human. As to conditions: read-out: IC50 (50% growth inhibition); HT29, Colon; 72 hours. As to the method:
as §1, §2

Another data set concerns PC3 cells. The data set is described as follows: Cytotoxicity CellTiter-Glo. In kind it is cell-based, human. The note with it: read-out: IC50 (50% growth inhibition); PC3, Prostate; 72 hours. As to the method:
as §1, §2

The next data set has as its system A2780 cells. The data set is described as follows: Cytotoxicity CellTiter-Glo. In kind it is cell-based, human. The note with it: read-out: IC50 (50% growth inhibition); A2780, Ovary; 72 hours.
Another data set deals with A2780-CP cells. The data set is described as follows: Cytotoxicity CellTiter-Glo. In kind it is cell-based, human. The note with it: read-out: IC50 (50% growth inhibition), Ovary, 72 hours.
Another data set relates to PE01 cells. Briefly: Cytotoxicity CellTiter-Glo. In kind it is cell-based, human. The note with it: read-out: IC50 (50% growth inhibition); PE01, Ovary; 72 hours.
In another data set the test system is PE04 cells. The data set is described as follows: Cytotoxicity CellTiter-Glo. In kind it is cell-based, human. As to conditions: read-out: IC50 (50% growth inhibition); PE04, Ovary; 72 hours.
The subject of the next data set is OVCAR2 cells. Briefly: Cytotoxicity CellTiter-Glo. In kind it is cell-based, human. As to conditions: read-out: IC50 (50% growth inhibition); OVCAR2, Ovary; 72 hours.
Data set [1] is described as follows: Maximum tolerated dose study: blood chemistry test (Table 7). The note with it: mouse, in vivo, iv, 5 mg/kg. The protocol:
The mice used in MTD were given standard chow devoid of added folic acid (low folate diet) (See, Leamon C P et al., J. Pharmacol. Exp. Ther. 327: 918-925). […] Therefore we also designed a MTD study in mice treated with low folate diet. Food consumption on the day before injection (Day −1) was recorded and then it was monitored every other day. […] Blood for clinical chemistry was collected if possible. Liver, kidney and bone marrow were collected. One side of each tissue (except bone marrow) will be fixed in 4-10% formalin for future histology analysis, and the rest of tissue will be cut into pieces, snap frozen, and stored at −80° C. until analysis. Blood samples for clinical chemistry were centrifuged at 8000 rpm for 10 min at 4° C. within 1 hour of collection. Plasma was collected into 1.5 mL eppendorf tubes and stored at −80° C. until analysis. The measured parameters were alanine transaminase (ALT), aspartate transaminase (AST), alkaline phosphatase (ALP), total bilirubin, glucose, blood urea nitrogen (BUN), creatinine, and electrolytes. All experiments were housed in a virus-free, temperature controlled facility on a 12-h light-dark cycle.

Data set [2] concerns SK-N-DZ neuroblastoma xenografts. Briefly: SK-N-DZ neuroblastoma xenograft in nu/nu mice. In kind it is in vivo, mouse. The protocol:
(§3) The xenograft studies were performed by subcutaneous injection of SK-N-DZ (neuroblastoma, 30×10^6 cells/animal) and RMS13 (rhabdomyosarcoma, 20×10^6 cells/animal) in right flank of the male Charles River Laboratories nu/nu mice (7-8 weeks old, weight ˜20 g). Mice were treated by intravenous tail vein injection once a week for 4 weeks. The tumor sizes and body weights were monitored twice a week. Tumor volumes were calculated according to the following formula: volume=height×[…]×length×0.5236.

For data set [3], the system named is RMS13 rhabdomyosarcoma xenografts. Briefly: RMS13 rhabdomyosarcoma xenograft in nu/nu mice. In kind it is in vivo, mouse. The protocol: as §3
[4] abbreviates: read-out: IC50 (50% growth inhibition), Brain, 72 hours.
[5] abbreviates: read-out: IC50 (50% growth inhibition), 72 hours.
[6] abbreviates: read-out: IC50 (50% growth inhibition), Neuroblastoma, 72 hours.

Broadly, the IC50 is the concentration at which inhibition is half-maximal. `CN(Cc1cnc2nc(N)nc(N)c2n1)c1ccc(C(=O)NC(CCC(=O)O)C(=O)O)cc1.[Cl][Pt][Cl]` (stereo not shown) [SM-69B]: the IC50 worked out at 43.2 ± 12.9 µM in the data set with SNF539 cells (read-out: IC50 ± S.D. (50% growth inhibition), SF539, Brain - High grade, + 1 mM Folic Acid); 0.46 ± 0.04 µM with SNF539 cells (read-out: IC50 ± S.D. (50% growth inhibition), SF539, Brain - High grade, two independent experiments); 63.3 ± 3.3 µM in the data set with SNB75 cells (read-out: IC50 ± S.D. (50% growth inhibition), SNB75, Brain - High grade, + 1 mM Folic Acid); 11.1 ± 2.1 µM with SNB75 cells (read-out: IC50 ± S.D. (50% growth inhibition), SNB75, Brain - High grade, two independent experiments); 13.9 ± 11.1 µM with U87MG cells (read-out: IC50 ± S.D. (50% growth inhibition), Brain - Low grade, + 1 mM Folic Acid); 0.96 ± 0.09 µM in the data set on U87MG cells (read-out: IC50 ± S.D. (50% growth inhibition), Brain - Low grade, two independent experiments). Moreover, the IC50 with U251 cells (read-out: IC50 ± S.D. (50% growth inhibition), U251, Brain - High grade, + 1 mM Folic Acid) was found to be 18 ± 1.4 µM; in the data set on U251 cells (read-out: IC50 ± S.D. (50% growth inhibition), U251, Brain - High grade, two independent experiments), 0.87 ± 0.13 µM; in the data set with T98G cells (read-out: IC50 ± S.D. (50% growth inhibition), Brain - High grade, + 1 mM Folic Acid), 5.3 ± 1.2 µM; in the data set on T98G cells (read-out: IC50 ± S.D. (50% growth inhibition), Brain - High grade, two independent experiments), 0.31 ± 0.05 µM; with HeLa R1-11 (SLC19A1) it was 0.109 µM; in the data set on HeLa R1-11 (SLC46A1), 0.702 µM.

For `CN(Cc1cnc2nc(N)nc(N)c2n1)c1ccc(C(=O)N[C@@H](CCC(=O)O)C(=O)O)cc1` [Methotrexate, methotrexate, reference compound], the “platinum content associated with genomic DNA (platinum-DNA adducts)” value in the data set with genomic DNA is reported as “did not have strong intensity (binding)”.

In general, GI50 refers to the concentration giving 50% growth inhibition. Lower therefore signals greater sensitivity of the cells. For the molecule `N.N.[Cl][Pt][Cl]` [Cisplatin, cisplatin, reference compound], the IC50 with SNF539 cells (read-out: IC50 (50% growth inhibition), SNF539, Brain, 72 hours) stood at 6.5 ± 7.2 µM; in the data set on SNB75 cells (read-out: IC50 (50% growth inhibition), SNB75, Brain, 72 hours) it was 15.4 ± 12.6 µM; in the data set on U87MG cells (setting [4]), 16.2 ± 12.6 µM; in the data set on U251 cells (read-out: IC50 (50% growth inhibition), U251, Brain, 72 hours), 11.2 ± 10.8 µM; in the data set on T98G cells (setting [4]), 27.5 µM; with MG-63 cells (setting [5]) it was 5.1 ± 2.3 µM. The IC50 in the data set on SAOS-2 cells (setting [5]) is 20.5 ± 9.9 µM; in the data set with U-2 OS cells (read-out: IC50 (50% growth inhibition), Osteosarcoma, 72 hours), 59.3 ± 9 µM; in the data set on A204 cells (setting [5]), 4.6 ± 4.4 µM; in the data set on A673 cells (read-out: IC50 (50% growth inhibition), A673, Ewing's Sarcoma, 72 hours) it was 0.4 ± 0.3 µM; with RMS13 cells (setting [5]), 2.5 ± 0.5 µM; in the data set with Kelly cells (setting [6]), 7 ± 5 µM. Moreover, the IC50 in the data set with SHEP cells (setting [6]) was 4.4 ± 2.4 µM; in the data set on SH-SY5Y cells (setting [6]), 1 ± 0.6 µM; in the data set with AsPC1 cells, 2.9 ± 0.03 µM; in the data set on DU145 cells, 0.5 ± 0.01 µM; with H226 cells it was 13.8 ± 2.8 µM; in the data set on HCT116 cells it was 2.1 ± 0.3 µM. Further, the IC50 is 2.3 ± 0.4 µM in the data set on HT29 cells; 2.5 ± 0.3 µM in the data set on PC3 cells; 1.2 ± 0.2 µM in the data set on A2780 cells; 8.6 ± 2.1 µM in the data set with A2780-CP cells; 0.6 ± 0.4 µM with PE01 cells; 4.9 ± 2 µM in the data set with PE04 cells. In addition, in the data set on OVCAR2 cells, the IC50 is 3.3 ± 1.6 µM. Moreover, the GI50 with MG-63 cells is 5.1 ± 2.3 µM; in the data set with SAOS-2 cells, 20.5 ± 9.9 µM; in the data set with U-2 OS cells (Osteosarcoma), 59.3 ± 9 µM; with A204 cells it was 4.6 ± 4.4 µM; with A673 cells (A673, Ewing's sarcoma), 0.4 ± 0.3 µM; in the data set with RMS13 cells, 2.5 ± 0.5 µM. The results for the GI50 with Kelly cells (Neuroblastoma), in the data set with SHEP cells (Neuroblastoma) and in the data set with SH-SY5Y cells (Neuroblastoma) were 7 ± 5 µM, 4.4 ± 2.4 µM and 1 ± 0.6 µM, respectively. The Cl in data set [1] is recorded as 102.33*. Besides, the “tumor volume / tumor growth” value in [2] (SKNDZ neuroblastoma xenograft, 5 mg/kg i.v. once a week for 4 weeks) is “inhibited tumor growth”; in data set [3] (RMS13 rhabdomyosarcoma xenograft, 5 mg/kg i.v. once a week for 4 weeks), “inhibited tumor growth”. Also, the survival entry in data set [2] (SKNDZ xenograft model, 5 mpk, 5 mg/kg) is reported as “significant difference in survival; also recorded: increase survival rate”; in [3] (RMS13 xenograft model, 5 mpk) it was “increase survival rate”.
